In patent publication US11191746B2, “Composition for inhibiting a growth of cancer stem cells comprising ciclesonide” (JEJU NATIONAL UNIVERSITY INDUSTRY-ACADEMIC COOPERATION …, priority 2016, dated 2021):

How the values were obtained:
MDA-MB-231 cells [1] = assay: Clonogenic assay; assay type: cell-based, human
Procedure: (§1) MDA-MB-231 cells or A549 cells were inoculated at low density in a 6-well plate, and, in a DMEM medium, the MDA-MB-231 cells were treated with different concentrations of ciclesonide, or the A549 cells were treated with 10 μM ciclesonide. After 24 hours, the medium was replaced with a new medium and cultured for […] to allow the cells to grow. The grown colonies were counted.

A549 cells [2] = assay: Clonogenic assay; assay type: cell-based, human; details: A549, 10 μM
Procedure: as §1

A549 cells [3] = assay: Lung cancer cell proliferation assay (MTS); assay type: cell-based, human; details: A549, 48 hours after treatment
Procedure: The proliferation rates of MCF-7 cells and MDA-MB-231 cells were measured using a CellTiter 96® aqueous one solution cell proliferation kit. The MCF-7 cells or the MDA-MB-231 cells were cultured in a 96-well plate for 48 hours in the presence of ciclesonide at concentrations of 0 μM, 5 μM, 10 μM, 20 μM, 40 μM, and 80 μM. In accordance with the manufacturer's protocol, absorbance at 490 nm was determined using a 96-well plate reader (Dynex Revelation, Dynex Ltd., Billingshurst, UK). Respective data was determined by measuring three sets.
An experiment was performed in the same manner as in Example 10-1, except that A549 cells were used as lung cancer cells and treated with ciclesonide at concentrations of 0 μM, 10 μM, 20 μM, 40 μM, 80 μM, and 100 μM.

STAT3 = assay: Electrophoretic mobility shift assay (EMSA) of mammosphere nuclear extract; assay type: cell-based, human; details: ciclesonide-treated mammosphere nuclear extract
mammospheres = assay: Mammosphere proliferation (cell counting); assay type: cell-based, human; details: mammospheres treated 2 days, single cells replated and counted
Procedure: (§2) FIG. 6B illustrates the effect of ciclesonide on mammosphere growth wherein ciclesonide inhibits the growth of mammospheres, mammospheres having been treated with ciclesonide or DMSO for 2 days were separated into single cells and plated in 6 cm dishes at the same density. 24 hours after plating, the cells were counted, on days 2 and 3, the cells were counted three times, and plotted as mean values, and the data was expressed as the mean±SD for the three independent experimental results. *p<0.05 vs. DMSO-treated control.

MDA-MB-231 cells [4] = assay: Apoptosis analysis by fluorescence staining (Hoechst 33258); assay type: cell-based, human; details: MDA-MB-231, 20 μM, 24 hours
Procedure: (§3) MDA-MB-231 cells were treated with 20 μM ciclesonide or A549 cells were treated with 30 μM ciclesonide, for 24 hours and the cells were incubated in 10 mg/ml of a Hoechst 33258 solution at 37° C. for 30 minutes. Subsequently, the cells were observed using a fluorescence microscope.

A549 cells [5] = assay: as above; assay type: cell-based, human; details: A549, 30 μM, 24 hours
Procedure: as §3

MDA-MB-231 cells [6] = assay: Scratch migration analysis; assay type: cell-based, human; details: MDA-MB-231, wound healing at 18 hours
Procedure: (§4) MDA-MB-231 cells or A549 cells were inoculated into a 6-well plate and grown to 90% confluency. A scratch was made on the cell layer using a sterile white micropipette tip. After washing with DMEM medium, the breast cancer cells or lung cancer cells were treated with ciclesonide or DMSO. At 18 hours, wounded areas were photographed using an optical microscope at a magnification of ×40.

A549 cells [7] = assay: Scratch migration analysis; assay type: cell-based, human; details: A549, wound healing at 18 hours
Procedure: as §4

C-myc [8] = assay: Real-time PCR of CSC markers in tumorspheres; assay type: cell-based, human; details: RT-PCR, vs group not treated
Procedure: (§5) The levels of transcripts were measured with a One Step SYBR PrimeScript RT-PCR kit (Takara, Tokyo, Japan) using SYBR green as a double-stranded DNA-specific dye in accordance with the manufacturer's protocol. One-step RT-PCR was performed on 1 μg of total RNA, 10 μl of 2× One Step SYBR RT-PCR Buffer IV, and 1 μl of PrimeScript 1 step Enzyme Mix II using PCR forward and reverse primers of each of CD44, NANOG, OCT4, C-myc, Sox2, Snail, and β-actin at a final volume of 20 μl per reaction.
(§6) The relative expression level of mRNA of the target gene was calculated using a comparative CT method. At least three independent PCR procedures were performed in accordance with statistical analysis. PCR products were normalized with the […] gene as an internal control.

Snail = assay: Real-time PCR of CSC markers in tumorspheres; assay type: cell-based, human; details: RT-PCR, vs group not treated
Procedure: as §5, §6

Sox2 [9] = assay: Real-time PCR of CSC markers in tumorspheres; assay type: cell-based, human; details: RT-PCR, vs group not treated
Procedure: as §5, §6

Nanog [10] = assay: Real-time PCR of CSC markers in tumorspheres; assay type: cell-based, human; details: RT-PCR, vs group not treated
Procedure: as §5, §6

C-myc [11] = assay: Real-time PCR of self-renewing genes in mammospheres; assay type: cell-based, human; details: RT-PCR, β-actin internal control
Procedure: as §5, §6

CD44 = assay: as above; assay type: cell-based, human; details: RT-PCR, β-actin internal control
Procedure: as §5, §6

Sox2 [12] = assay: as above; assay type: cell-based, human; details: RT-PCR, β-actin internal control
Procedure: as §5, §6

Nanog [13] = assay: as above; assay type: cell-based, human; details: RT-PCR, β-actin internal control
Procedure: as §5, §6

Oct4 = assay: as above; assay type: cell-based, human; details: RT-PCR, β-actin internal control
Procedure: as §5, §6

[14] = test system: A549 cell xenograft tumor; assay: Lung cancer xenograft model in NOD-SCID male nude mice; assay type: in vivo; details: 10 mg/kg
Procedure: A total of 12 NOD-SCID (BALB/cSIc (nu/nu)) male nude mice producing lung cancer cells were divided into two groups. […] The volume of tumors of each control mouse was measured every three days and calculated by the following equation: (width×length^2)/2. The other six nude mice received neoadjuvant chemotherapy using a test drug by infusion at an optimum dose of 10 mg/kg/day.

tumorspheres = assay: Tumorsphere proliferation (cell counting); assay type: cell-based, human; details: tumorspheres treated 2 days, single cells replated and counted on days 1 to 3
Procedure: as §2, with “FIG. 11B” for “FIG. 6B”, “on tumorsphere formation” for “on mammosphere growth”, “of tumorspheres, tumorspheres” for “of mammospheres, mammospheres”, “same density,” for “same density.”, “days 1, 2,” for “days 2”, “DMSO-treated control; and […]” for “DMSO-treated control.”

CC(C)C(=O)OCC(=O)[C@@]12O[C@H](C3CCCCC3)O[C@@H]1C[C@H]1[C@@H]3CCC4=CC(=O)C=C[C@]4(C)[C@H]3[C@@H](O)C[C@@]12C [ciclesonide]
colony formation (MDA-MB-231 cells [1]): inhibited | colony formation (A549 cells [2]): inhibited | concentration at which growth of the cell line was inhibited in a concentration-dependent manner (A549 cells [3]): ≥ 40 µM | binding between the biotin-labeled SIE probe and Stat3 (STAT3): inhibited | proliferation of mammospheres (mammospheres): significantly reduced | formation of apoptotic bodies (MDA-MB-231 cells [4]): apoptotic bodies were formed | formation of apoptotic bodies (A549 cells [5]): apoptotic bodies were formed | migration (MDA-MB-231 cells [6]): inhibited | migration (A549 cells [7]): inhibited | expression of C-myc (C-myc [8]): reduced | expression of Snail (Snail): reduced | expression of Sox2 (Sox2 [9]): reduced | expression of Nanog (Nanog [10]): reduced | expression of C-myc (C-myc [11]): reduced | expression of CD44 (CD44): reduced | expression of Sox2 (Sox2 [12]): reduced | expression of Nanog (Nanog [13]): reduced | expression of Oct4 (Oct4): reduced | tumor volume vs control not treated [14]: smaller | tumor weight vs control not treated [14]: smaller | growth of tumorspheres (number of survived cancer cells) (tumorspheres): inhibited
